Results taken from patent US8114863B2, “Compounds comprising short aminoalcohol chains and metal complexes for medical imaging” (Guerbet, priority 2005, dated 2012).
One block for each molecule: values may come before it.

Assays:
[1] = Relaxivity measurements (r1 from relaxation times T1/T2, Minispec 120); type: physicochemical
Description: […] The longitudinal relaxation time T1 is measured using an inversion recovery sequence and the transverse relaxation time T2 is measured by a CPMG technique.
The relaxation rates R1 (=1/T1) and R2 (=1/T2) were calculated for different total metal concentrations (varying from 0.1×10^−3 to 1×10^−3 mol/l) in aqueous solution at 37° C. The correlation between R1 or R2 as a function of the concentration is linear and the slope represents the relaxivity r1 (RUC) or r2 (R2/C) expressed as (1/second)×(1/mmol/l), i.e. mM^−1·s^−1.
The compounds were prepared in different media: water, NaCl, citrate, phosphate, carbonate, cocktail of ions.

[2] = Osmolality (Wescor 5220 tonometer); type: physicochemical; settings: at administration dose of the product in man (500 mM; Gadovist 1000 mM)
C6 glioma = test: In vivo MRI imaging study, detection of C6 glioma in rat; settings: 0.1 mmol/kg, 2.35 T
Description: Compounds II (example 2) was compared to Dotarem® ans MultiHance(® for the detection of C6 glioma in rat (n=6/product). Each animal received all the three products at the same dose (0.1 mmol/kg) in a random order. A minimal delay of 4 hours has been respected between the injections in order to avoid remaining contrast from the previous injection. Enhancement was follow-up during 30 min with a T1w-Spin Echo sequence (TR/TE=498/14.2 ms, FOV=4×4 cm2, slice thickness 2 mm, interslice distance 3 mm, 192×192 matrix, 2 accumulation) on a 2.35 T system (BioSpec 24/40, Bruker, Germany). Enhancement of the lesions have been quantitatively (ROIs) and qualitatively (blinded cotation) evaluated. […] However among the three contrast agents, compound II induced a 2 fold-more pronounced contrast between the lesion and the healthy brain.

SMILES: O=C(O)CCC(C(=O)O)N1CCN(C(CCC(=O)O)C(=O)O)CCN(C(CCC(=O)O)C(=O)O)CCN(C(CCC(=O)O)C(=O)O)CC1 (stereo not shown)
Relaxivity r1 in water (mM − 1s − 1) at 0.5 T [1]: 6.2 mM − 1s − 1

SMILES: O=C(O)C(CCO)N1CCN(C(CCO)C(=O)O)Cc2cccc(n2)CN(C(CCO)C(=O)O)CC1 (stereo not shown) [Comparative Example 9]
relaxivity ([1]; field not stated): 6 | Relaxivity r1 in water (mM − 1s − 1) at 0.5 T [1]: 6 mM − 1s − 1

SMILES: CNC[C@H](O)[C@@H](O)[C@H](O)[C@H](O)CO.O=C([O-])CN1CCN(CC(=O)[O-])CCN(CC(=O)O)CCN(CC(=O)[O-])CC1.[Gd+3] [Dotarem ®]
depiction of the lesions (C6 glioma): All the lesions have been depicted | Relaxivity r1 at 60 MHz in water [1]: 3.5 mM⁻¹ s⁻¹ | Osmality (mOsm/kg) [2]: 1350 mOsm/kg

SMILES: CNC[C@H](O)[C@@H](O)[C@H](O)[C@H](O)CO.CNC[C@H](O)[C@@H](O)[C@H](O)[C@H](O)CO.O=C([O-])CN(CCN(CC(=O)[O-])CC(=O)O)CCN(CC(=O)O)C(COCc1ccccc1)C(=O)[O-].[Gd+3] (stereo not shown) [MultiHance]
depiction of the lesions (C6 glioma): All the lesions have been depicted

Other lines, results leading:

Osmality (mOsm/kg) [2]: 1400 mOsm/kg
SMILES: O=C([O-])CN1CCN(CC(=O)[O-])CCN([C@H](CO)[C@H](O)CO)CCN(CC(=O)[O-])CC1.[Gd+3] (racemic) [Gadovist ® (1M)]

Relaxivity r1 at 60 MHz in water [1]: 3.5 mM⁻¹ s⁻¹ | Osmality (mOsm/kg) [2]: 1950 mOsm/kg
SMILES: CNC[C@H](O)[C@@H](O)[C@H](O)[C@H](O)CO.CNC[C@H](O)[C@@H](O)[C@H](O)[C@H](O)CO.O=C([O-])CN(CCN(CC(=O)[O-])CC(=O)O)CCN(CC(=O)[O-])CC(=O)O.[Gd+3] [Magnevist ®]

relaxivity at 20 MHz ([1]; 20 MHz): 14.7 mM^−1s^−1 Gd^−1 | relaxivity at 40 MHz ([1]; 40 MHz): 12.8 mM^−1s^−1 Gd^−1 | relaxivity at 300 MHz ([1]; 300 MHz): 10.4 mM^−1s^−1 Gd^−1
SMILES: O=C(CCCC(C(=O)O)N1CCN(C(CCCC(=O)NCC(O)CO)C(=O)O)Cc2cccc(n2)CN(C(CCCC(=O)NCC(O)CO)C(=O)O)CC1)NCC(O)CO (stereo not shown) [complex 7]
